In US9974776B2, “Estrogen receptor beta agonists for use in treating mesothelioma” (Karo Pharma AB, priority 2013, dated 2018):
Like-named read-outs stand apart in the source and are kept apart here.

Columns and labels:
MET5A cells = experiment: Proliferation assay in non-malignant mesothelial MET5A cells; type: cell-based; conditions: 24 hours treatment
Protocol: (§1) Cells were seeded at a density of 10×10^4 cells/well in 6-well plates in RPMI medium supplemented with 10% FBS, 100 μg/ml streptomycin and 10 μg/ml penicillin and incubated over-night at 37° C. in a humidified environment containing 5% CO2 to allow adherence. Following treatment cells were trypsinized and stained with Trypan blue. The number of cells considered viable (unstained cells) was counted in a Bürker haemocytometer within 5 minutes after staining.
Cell cultures were pretreated with Compound (I) for 1-16 hours (depending on experiment) followed by wash-off and then replenished with normal growth medium±cisplatin, pemetrexed or cisplatin/pemetrexed. Total incubation time was 24-72 hours (depending on experiment). Control cultures were maintained in normal growth medium without added drug. The number of viable cells was determined as described for the proliferation assay.

PARP1 cleavage = experiment: Western blot of PARP1 cleavage in REN cells; type: cell-based, human; conditions: agent alone
Protocol: Cells were extracted with 1% NP-40 lysis buffer (1% NP-40, 150 mM NaCl, 50 mM Tris-HCl pH 8.5 mM EDTA, 10 mM NaF, 10 mM Na4P2O7, 0.4 mM Na3VO4) with freshly added protease inhibitors (10 μg/ml leupeptin, 4 μg/ml pepstatin and 0.1 Unit/ml aprotinin). For protein extraction from tissues, ˜100 mg of each sample were homogenized, using a Potter-Elvehjem homogenizer device, in 1% NP-40 lysis buffer. Lysates were centrifuged at 13.000×g for 10 minutes at 4° C. and the supernatants were collected and assayed for protein concentration with the Bio-Rad protein assay method.
Proteins were separated by SDS-PAGE under reducing conditions. Following SDS-PAGE, proteins were transferred to nitrocellulose, reacted with specific antibodies and then detected with peroxidase-conjugate secondary antibodies and chemioluminescent ECL reagent. Densitometric analysis was performed using the GS 250 Molecular Image (Bio-Rad).
Levels of PARP1, cleaved PARP1, AKT and phosphorylated AKT in REN cells treated for 24 hours with cisplatin (25, 50 and 100 μM) or pre-treated 2 hours with Compound (I) (10 nM) followed by wash-off and continued growth in normal medium±cisplatin (25, 50 and 100 μM), for an additional 24 hours were also determined by Western blot analysis and relative densitometry. Total AKT and Tubulin staining were used for normalization. PARP1 cleavage was analysed as it is an indicator of apoptotic cell death. As increased AKT activity has been implicated in the control of proliferation, apoptosis and cisplatin resistance (Pinton G., et al, PLoS One (2012) 7:e36856), AKT activation status following different treatments was also analysed.

REN cells = experiment: Proliferation assay (Trypan blue viable cell count; wash-off and add-on experiments) in REN cells; type: cell-based, human; conditions: concentrations used in Example 2(a), said in b159 to be the respective IC50 concentrations, read-out: IC50 concentration in REN cells
Protocol: as §1
Control cultures were maintained in normal growth medium without added drug. The number of viable cells was determined as described for the proliferation assay.
In the add-on experiments the second drug was added directly to the cell culture medium without wash-off of the first drug. […] Control cultures were maintained in normal growth medium without added drug. The number of viable cells was determined as described for the proliferation assay.

N.N.[Cl][Pt][Cl] [cisplatin, reference compound]
IC50 (MET5A cells): 25 µM
PARP1 cleavage, single agent (PARP1 cleavage): neither cisplatin nor Compound (I) alone resulted in significant PARP1 cleavage
IC50 (REN cells): 100 µM

Nc1nc2[nH]cc(CCc3ccc(C(=O)N[C@@H](CCC(=O)O)C(=O)O)cc3)c2c(=O)[nH]1 [pemetrexed, reference compound]
IC50 (REN cells; Homo sapiens): 22 µM
